Experimental findings from patent US6765003B1, “3-Arylsulfonyl-2 (substituted methyl) propanoic acid derivatives as matrix metalloproteinase inhibitors” (Pharmacia Italia, SpA, priority 1999, dated 2004) are described below.

What is called pKi is the Ki on a negative log10 scale, so that one unit is a factor of ten.

Test [1] has as its target T1, Human gelatinase-A (MMP-2) (Homo sapiens, UniProt P08253).
T1 sequence (P08253 110-660): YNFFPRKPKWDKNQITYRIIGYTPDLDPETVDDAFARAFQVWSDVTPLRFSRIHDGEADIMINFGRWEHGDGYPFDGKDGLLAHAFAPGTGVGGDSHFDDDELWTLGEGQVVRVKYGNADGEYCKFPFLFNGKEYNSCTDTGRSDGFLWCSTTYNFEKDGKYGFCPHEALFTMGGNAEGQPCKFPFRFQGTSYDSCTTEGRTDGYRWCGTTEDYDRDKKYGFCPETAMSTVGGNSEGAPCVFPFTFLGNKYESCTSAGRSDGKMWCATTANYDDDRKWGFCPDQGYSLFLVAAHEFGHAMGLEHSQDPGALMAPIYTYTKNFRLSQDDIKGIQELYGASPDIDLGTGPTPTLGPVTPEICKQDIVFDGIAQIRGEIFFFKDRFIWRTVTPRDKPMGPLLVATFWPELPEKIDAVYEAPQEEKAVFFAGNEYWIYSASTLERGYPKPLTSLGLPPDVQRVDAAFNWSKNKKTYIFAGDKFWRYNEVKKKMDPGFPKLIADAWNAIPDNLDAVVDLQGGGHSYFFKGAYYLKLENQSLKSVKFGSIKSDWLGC
Kind of test: MMP inhibition, internal fluorescence quenching method (MCA peptide substrate). Format: biochemical. The procedure: (§1) The inhibitory activity of the compounds of the present invention was evaluated in vitro against one or more of the MMP enzymes (gelatinases, collagenases, stromelysins) using the internal fluorescence quenching method. The assay method is based on the hydrolysis of the MMP substrate, MCA-Pro-Leu-Gly-Leu-DPA-Ala—Arg-NH2 at 37° C. (see Knight, C. G. et al., FEBS Lett. 296:263-266, 1992). The enzymes cleave at the Gly-Leu bond removing the internally quenching DPA group. The release of the highly fluorescent peptide MCA-Pro-Leu was monitored with a LS50 Perkin Elmer fluorimeter equipped with a Peltier-thermostated cell holder using an excitation wavelength of 326 nm and an emission wavelenght of 398 nm. Slis were set at 14/14. Proper determination of steady-state rates of substrate cleavage required a preincubation at 37° C. of 15 minutes to allow for complete equilibration of the enzyme-inhibitor complex. […] Rates of substrate hydrolysis, expressed as fluorescence arbitrary units per minute, were calculated by least-square analysis of the steady-state linear progression curves. The steady-state rates were fitted to the Michaelis equation describing competitive inhibition; in particular, Ki,app were determined by fining the data to the tight-binding equation of Morrison (Biochem. Biophys. Acta, 185:269-286, 1969) by non-linear methods.
(§2) Human gelatinase-A (MMP-2) was obtained as penzyme (72 kDa) and was activated with 1 mM 4-aminophenylmercuric acetate for 30 min at 37° C. immediately prior to use. The inhibitor was diluted into the assay from a stock solution in 100% DMSO, and controls substituted an equal volume of DMSO so that the final DMSO concentration from inhibitor and substrate dilution in all assays was 1%. The concentration of MMP-2 was 19.2 picoM. For compounds of formula (I) where X is —OH, the assay buffer was 50 mM Tris/HCl pH 6.5 containing 150 mM NaCl, 10 mM CaCl2, 0.01 mM ZnCl2 and 0.05% Brij35 (Protocol A). Other conditions were as stated above.
The compounds of formula (I) where X is —NHOH were tested against MMP-2 and MMP-1 under the conditions stated above, but the assay solution was buffered at pH 7.4 (Protocol B).

Test [2] concerns the target T2, Human fibroblast collagenase (MMP-1) (Homo sapiens, UniProt P03956).
T2 sequence (P03956 101-269): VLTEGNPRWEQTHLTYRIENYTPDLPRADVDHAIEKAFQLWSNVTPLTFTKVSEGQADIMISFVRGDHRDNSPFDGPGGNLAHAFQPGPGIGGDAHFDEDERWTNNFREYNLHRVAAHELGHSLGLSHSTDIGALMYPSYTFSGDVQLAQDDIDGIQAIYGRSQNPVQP
The test is described as above. Type of test: biochemical. The procedure: as §1, §2
Assay conditions were the same as above, but enzyme concentration was 200 picoM.

The mark [3] stands for this setting: Protocol A: Tris/HCl pH 6.5, 37° C., MMP-2 19.2 picoM, substrate 3 μM, carboxylic acids, read-out: MMP-2 Ki.
The mark [4] stands for this setting: Protocol A: pH 6.5, 37° C., enzyme 200 picoM, substrate 3 μM, carboxylic acids, read-out: MMP-1 Ki.

Each structure is given as a SMILES string. pKi: −log10 of the molar value. Counter-ions that a name gives are not always drawn. Like-named read-outs stand apart in the source and are kept apart here.

With `CN1C(=O)N(CC(CS(=O)(=O)c2ccc(-c3ccc(Cl)cc3)cc2)C(=O)O)C(=O)C1(C)C` (racemic) [Example 5, 3-[(4′-chloro[1,1′-biphenyl]-4-yl)sulfonyl]-2-[(3,4,4-trimethyl-2,5-dioxo-1-imidazolidinyl)methyl]propanoic acid], the pKi in test [1] (setting [3]) was 8.26; in test [2] (setting [4]), under 5.70.

For `O=C(O)C(CSc1ccccc1)CS(=O)(=O)c1ccc(-c2ccc(Cl)cc2)cc1` (single isomer, unassigned) [3, Isomer 1], in test [1] (setting [3]), the pKi was 8.22.

For the compound `O=C(O)C(CSc1ccccc1)CS(=O)(=O)c1ccc(-c2ccc(Cl)cc2)cc1` (single isomer, unassigned) [3, Isomer 2], in test [1] (setting [3]), the pKi was 6.18.

For the compound `CN1C(=O)N(CC(CS(=O)(=O)c2ccc(-c3ccc(Cl)cc3)cc2)C(=O)O)C(=O)C1(C)C` (single isomer, unassigned) [6, Isomer 1], the results for the pKi in test [1] (setting [3]) and in test [2] (setting [4]) were 8.43 and 5.44, respectively.

In the case of `CN1C(=O)N(CC(CS(=O)(=O)c2ccc(-c3ccc(Cl)cc3)cc2)C(=O)O)C(=O)C1(C)C` (single isomer, unassigned) [6, Isomer 2], the pKi in test [1] (setting [3]) is 7.30.

Regarding `O=C(NO)C(CSc1ccccc1)CS(=O)(=O)c1ccc(-c2ccc(Cl)cc2)cc1` (centres unmarked) [Example 4, 3-[(4′-chloro[1,1′-biphenyl]-4-yl)sulfonyl]-N-hydroxy-2-[(phenylsulfanyl)methyl]propanamide], the pKi is 9.80 in test [1] (Protocol B: pH 7.4, 37° C., hydroxamic acids (X is —NHOH), read-out: MMP-2 Ki (picoM)) and 6.83 in test [2] (Protocol B: pH 7.4, 37° C., hydroxamic acids (X is —NHOH), read-out: MMP-1 Ki (picoM)).

In the case of `O=C(Nc1ccc(S(=O)(=O)CC(CSc2cccs2)C(=O)O)cc1)c1ccccc1` (centres unmarked) [Example 14, 3-[[4-(Benzoylamino)phenyl]sulfonyl]-2-[(2-thienylsulfanyl)methyl]propanoic acid], the pKi in test [1] (setting [3]) was 8.10.

For the compound `CCCCN1C(=O)CN(CC(CS(=O)(=O)c2ccc(-c3ccc(Cl)cc3)cc2)C(=O)O)C1=O` (centres unmarked) [Example 18, 3-[(4′-chloro[1,1′-biphenyl]-4-yl)sulfonyl]-2-[(3-butyl-2,4-dioxo-1-imidazolidinyl)methyl]propanoic acid], the pKi in test [1] (setting [3]) is 8.11.

`N#Cc1ccc(-c2ccc(S(=O)(=O)CC(CSc3ccccc3)C(=O)O)cc2)cc1` (centres unmarked) [Example 19, 3-[(4′-cyano[1,1′-biphenyl]-4-yl)sulfonyl]-2-[(phenylsulfanyl)methyl]propanoic acid]: the negative logarithm of the Ki (pKi) in test [1] (setting [3]) is 7.77.

For the compound `Cn1ccnc1SCC(CS(=O)(=O)c1ccc(-c2ccc(Cl)cc2)cc1)C(=O)O` (centres unmarked) [Example 25, 3-[(4′-chloro[1,1′-biphenyl]-4-yl)sulfonyl]-2-[[(1-methyl-1H-imidazol-2-yl)sulfanyl]methyl]propanoic acid], in test [1] (setting [3]), the pKi is 7.80.

As for `N#Cc1ccc(-c2ccc(S(=O)(=O)CC(COc3ccccc3)C(=O)O)cc2)cc1` (centres unmarked) [Example 29, 3-[(4′-cyano[1,1′-biphenyl]-4-yl)sulfonyl]-2-(phenoxymethyl)propanoic acid, sodium salt], the pKi in test [1] (setting [3]) is 7.67.

Turning to `O=C(O)C(COc1ccccc1CO)CS(=O)(=O)c1ccc(-c2ccc(Cl)cc2)cc1` (centres unmarked) [Example 33, 3-[(4′-chloro[1,1′-biphenyl]-4-yl)sulfonyl]-2-[[2-(hydroxymethyl)phenoxy]-methyl]propanoic acid], the pKi in test [1] (setting [3]) is 7.82.

On to `Cc1nnc(SCC(CS(=O)(=O)c2ccc(-c3ccc(Cl)cc3)cc2)C(=O)O)s1` (centres unmarked) [Example 36, 3-[(4′-chloro[1,1′-biphenyl]-4-yl)sulfonyl]-2-[[(S-methyl-1,3,4-thiadiazol-2-yl)sulfanyl]methyl]propanoic acid.], for which the pKi in test [1] (setting [3]) was 7.48.

Take `O=C(O)C(CSc1nc2ccccc2[nH]1)CS(=O)(=O)c1ccc(-c2ccc(Cl)cc2)cc1` (centres unmarked) [Example 37, 3-[(4′-chloro[1,1′-biphenyl]-4-yl)sulfonyl]-2-[(1H-benzimidazol-2-yl-sulfanyl)methyl]-propanoic acid]: the pKi in test [1] (setting [3]) is 7.74.
